Experimental data taken from PubChem BioAssay AID1918957 (Molecular Pharmacology Branch, DTP, NCI, 2023).

Test system: NCI-H1876 complex spheroid viability
Assay: Anticancer human tumor NCI-H1876 cell line growth inhibition [LSD1];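 note: spheroids exposed to compounds for one week before readout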;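 for viability, T/C: 100% = DMSO vehicle-treated spheroids so lower means fewer viable cells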
Settings: for IC50: curve of first compound; for viability, T/C: stronger effect = lower value
From the text: Multicellular complex tumor spheroid response to LSD1 Inhibitor Iadademstat in combination with a variety of drugs and investigational agents in selected tumor cell lines
The current study was undertaken to assess response to LSD1 inhibitors in combination with standard-of-care drugs and investigational agents in solid tumor complex spheroid models as well as in the K-562 leukemia. Complex spheroids include a stromal component modeled by human endothelial cells (HUVEC) and fibroblasts modeled by human mesenchymal stem cells (MSCs). The concentration ranges selected for each drug and investigational agent were based upon clinically achievable concentrations if the clinical Cmax of the agent was known.
Compounds. The drugs and investigational agents used in this study are listed on Table 1. All of the agents used, including staurosporine (NSC755774) and gemcitabine (NSC613327), were obtained from the Developmental Therapeutics Program, NCI. FDA-approved anticancer drugs are available from the NCI at http://dtp.nci.nih.gov/branches/dscb/oncology_drugset_explanation.html. Drugs and investigational agents were >95% pure by proton nuclear magnetic resonance (NMR) and liquid chromatography/mass spectrometry (LC/MS). Stock solutions were prepared at 400x in DMSO, stored at -70 degrees C, and diluted in fresh medium prior to their use. The final concentration of DMSO in cell culture wells never exceeded 0.25% (v/v). The FDA-approved anticancer drug set is available from the Developmental Therapeutics Program at https://dtp.cancer.gov/organization/dscb/obtaining/available_plates.htm. All drugs and investigational agents were tested over a range starting from a high concentration at or near the clinical Cmax and decreasing in half-log increments. If the clinical Cmax for an agent had not been determined, the highest concentration tested was 10 microM.
Cell Lines. The patient-derived cancer cell (PDC) lines: 292921-168-R-J2-PDC, K24384-001-R-PDC, and 521955-158-R2-J5-PDC pancreatic carcinomas, 556581-035-R-J1 ovarian carcinoma, 324938-238-R-J1-PDC, 855422-203-R-J1-PDC and 883617-216-R-J1-PDC urothelial bladder carcinomas, 743489-274-T-PDC renal cell carcinoma, 138582-R-J1 Merkel cell tumor, K60290-347-R-J1 and K57222-313-R-J1-PDC glioblastomas, 653999-131-R-J2-PDC, LG0703-F948-PDC, and 349418-098-R-PDC non-small cell lung carcinomas, 885512-296-R-J2-PDC, 171881-019-R-J1-PDC breast carcinomas and 186277-243-T-J2-PDC and 233499-124-R-J2-PDC colon carcinomas were obtained from the NCI Patient-Derived Models Repository (PDMR, https://pdmr.cancer.gov). The established cell lines NCI/ADR-RES (RRID:CVCL_14520 and OVCAR-5 (RRID:CVCL_1628) ovarian carcinomas, 786-O (RRID:CVCL_1051) and A498 (RRID:CVCL_A498) renal cell carcinoma, NCI-H211 (ATCC, cat. CRL-5824; RRID:CVCL_1529), NCI-H196 (ATCC, cat. CRL-5823, RRID:CVCL_1509), SW 1271 (ATCC, cat. CRL-2177, RRID:CVCL_1716) and NCI-H1876 (ATCC, cat. CRL-5902, RRID:CVCL_1503) small cell lung carcinomas, MDA-MB-231 (RRID:CVCL_0062) and MDA-MB-468 (RRID:CVCL_0419)breast carcinomas (10-12). Pooled donor human umbilical vein endothelial cells (HUVEC, Lonza, cat. CC-2519) and human mesenchymal stem cells (hMSC, Lonza, cat. PT-2501) were purchased from Lonza (Walkersville, MD).
Cell Culture. All cells were maintained in an incubator at 37 degrees C and 5% CO2 with 95% humidity. The PDC lines were cultured according to standard operating procedures established by the NCI PDMR (https://pdmr.cancer.gov). Briefly all PDCs were thawed and cultured in Matrigel-coated flasks prepared with a working solution of 1X Ham's F-12 nutrient mix, without supplementation (Invitrogen, Waltham, MA, cat. 11765054), 100 U/mL penicillin-streptomycin (Invitrogen, cat. 15140122), and 2.5% Matrigel (Corning Inc., Corning, NY, cat. 354248) for the first three passages. […]

[1] = second compound 0.1 µM, first compound 0.000949 µM
[2] = second compound 0.1 µM, first compound 0.003 µM
[3] = second compound 0.1 µM, first compound 0.00949 µM
[4] = second compound 0.1 µM, first compound 0.03 µM
[5] = second compound 0.1 µM, first compound 0.0949 µM
[6] = second compound 0.1 µM, first compound 0.3 µM
[7] = second compound 0.316 µM, first compound 0.000949 µM
[8] = second compound 0.316 µM, first compound 0.003 µM
[9] = second compound 0.316 µM, first compound 0.00949 µM
[10] = second compound 0.316 µM, first compound 0.03 µM
[11] = second compound 0.316 µM, first compound 0.0949 µM
[12] = second compound 0.316 µM, first compound 0.3 µM
[13] = second compound 1 µM, first compound 0.000949 µM
[14] = second compound 1 µM, first compound 0.003 µM
[15] = second compound 1 µM, first compound 0.00949 µM
[16] = second compound 1 µM, first compound 0.03 µM
[17] = second compound 1 µM, first compound 0.0949 µM
[18] = second compound 1 µM, first compound 0.3 µM
[19] = second compound 3.16 µM, first compound 0.000949 µM
[20] = second compound 3.16 µM, first compound 0.003 µM
[21] = second compound 3.16 µM, first compound 0.00949 µM
[22] = second compound 3.16 µM, first compound 0.03 µM
[23] = second compound 3.16 µM, first compound 0.0949 µM
[24] = second compound 3.16 µM, first compound 0.3 µM
[25] = second compound 10 µM, first compound 0.000949 µM
[26] = second compound 10 µM, first compound 0.003 µM
[27] = second compound 10 µM, first compound 0.00949 µM
[28] = second compound 10 µM, first compound 0.03 µM
[29] = second compound 10 µM, first compound 0.0949 µM
[30] = second compound 10 µM, first compound 0.3 µM

SMILES: CCc1c2c(nc3ccc(O)cc13)-c1cc3c(c(=O)n1C2)COC(=O)[C@]3(O)CC + NC1CC1c1ccc(-c2cccc(O)c2)cc1
- IC50 (second compound 0.1 µM): < 0.949 nM
- IC50 (second compound 0.316 µM): < 0.949 nM
- IC50 (second compound 1 µM): < 0.949 nM
- IC50 (second compound 3.16 µM): < 0.949 nM
- IC50 (second compound 10 µM): < 0.949 nM
- viability, T/C [1]: 5.07%
- viability, T/C [2]: 3.61%
- viability, T/C [3]: 1.59%
- viability, T/C [4]: 0.3%
- viability, T/C [5]: 0.22%
- viability, T/C [6]: 0.31%
- viability, T/C [7]: 5.4%
- viability, T/C [8]: 3.71%
- viability, T/C [9]: 1.52%
- viability, T/C [10]: 0.19%
- viability, T/C [11]: 0.15%
- viability, T/C [12]: 0.25%
- viability, T/C [13]: 5.18%
- viability, T/C [14]: 3.15%
- viability, T/C [15]: 1.5%
- viability, T/C [16]: 0.39%
- viability, T/C [17]: 0.6%
- viability, T/C [18]: 0.3%
- viability, T/C [19]: 5.73%
- viability, T/C [20]: 3.61%
- viability, T/C [21]: 1.99%
- viability, T/C [22]: 0.43%
- viability, T/C [23]: 0.32%
- viability, T/C [24]: 0.32%
- viability, T/C [25]: 6.65%
- viability, T/C [26]: 4.79%
- viability, T/C [27]: 3.56%
- viability, T/C [28]: 0.81%
- viability, T/C [29]: 0.56%
- viability, T/C [30]: 0.86%

SMILES: Nc1ccn(C2OC(CO)C(O)C2(F)F)c(=O)n1 (stereo not given) + NC1CC1c1ccc(-c2cccc(O)c2)cc1
- IC50 (second compound 0.1 µM): 6.24 nM
- IC50 (second compound 0.316 µM): 6.23 nM
- IC50 (second compound 1 µM): 6.24 nM
- IC50 (second compound 3.16 µM): 6.33 nM
- IC50 (second compound 10 µM): 6.89 nM
- viability, T/C [1]: 104%
- viability, T/C [2]: 93.9%
- viability, T/C [3]: 24.8%
- viability, T/C [4]: 9.9%
- viability, T/C [5]: 8.25%
- viability, T/C [6]: 7.07%
- viability, T/C [7]: 103%
- viability, T/C [8]: 91.5%
- viability, T/C [9]: 26%
- viability, T/C [10]: 10.9%
- viability, T/C [11]: 7.72%
- viability, T/C [12]: 7.02%
- viability, T/C [13]: 108%
- viability, T/C [14]: 87.2%
- viability, T/C [15]: 28.7%
- viability, T/C [16]: 9.78%
- viability, T/C [17]: 8.57%
- viability, T/C [18]: 7.79%
- viability, T/C [19]: 104%
- viability, T/C [20]: 87%
- viability, T/C [21]: 29.9%
- viability, T/C [22]: 10.1%
- viability, T/C [23]: 8.03%
- viability, T/C [24]: 7.36%
- viability, T/C [25]: 101%
- viability, T/C [26]: 91.4%
- viability, T/C [27]: 34%
- viability, T/C [28]: 13.2%
- viability, T/C [29]: 10.4%
- viability, T/C [30]: 11.8%

SMILES: O=C(c1cc(Cc2n[nH]c(=O)c3ccccc23)ccc1F)N1CCN(C(=O)C2CC2)CC1 + NC1CC1c1ccc(-c2cccc(O)c2)cc1
- IC50 (second compound 0.1 µM): 6190 nM
- IC50 (second compound 0.316 µM): 6210 nM
- IC50 (second compound 1 µM): 6350 nM
- IC50 (second compound 3.16 µM): 6410 nM
- IC50 (second compound 10 µM): 6490 nM
- viability, T/C (second compound 0.1 µM, first compound 0.0316 µM): 101%
- viability, T/C (second compound 0.1 µM, first compound 0.1 µM): 99.9%
- viability, T/C (second compound 0.1 µM, first compound 0.316 µM): 98.2%
- viability, T/C (second compound 0.1 µM, first compound 1 µM): 90.3%
- viability, T/C (second compound 0.1 µM, first compound 3.16 µM): 68.3%
- viability, T/C (second compound 0.1 µM, first compound 10 µM): 36.9%
- viability, T/C (second compound 0.316 µM, first compound 0.0316 µM): 103%
- viability, T/C (second compound 0.316 µM, first compound 0.1 µM): 94.9%
- viability, T/C (second compound 0.316 µM, first compound 0.316 µM): 97.7%
- viability, T/C (second compound 0.316 µM, first compound 1 µM): 88.3%
- viability, T/C (second compound 0.316 µM, first compound 3.16 µM): 66.8%
- viability, T/C (second compound 0.316 µM, first compound 10 µM): 38%
- viability, T/C (second compound 1 µM, first compound 0.0316 µM): 106%
- viability, T/C (second compound 1 µM, first compound 0.1 µM): 99.5%
- viability, T/C (second compound 1 µM, first compound 0.316 µM): 98.3%
- viability, T/C (second compound 1 µM, first compound 1 µM): 88.2%
- viability, T/C (second compound 1 µM, first compound 3.16 µM): 70.2%
- viability, T/C (second compound 1 µM, first compound 10 µM): 36.7%
- viability, T/C (second compound 3.16 µM, first compound 0.0316 µM): 102%
- viability, T/C (second compound 3.16 µM, first compound 0.1 µM): 96.9%
- viability, T/C (second compound 3.16 µM, first compound 0.316 µM): 101%
- viability, T/C (second compound 3.16 µM, first compound 1 µM): 88.4%
- viability, T/C (second compound 3.16 µM, first compound 3.16 µM): 72%
- viability, T/C (second compound 3.16 µM, first compound 10 µM): 36.3%
- viability, T/C (second compound 10 µM, first compound 0.0316 µM): 99.5%
- viability, T/C (second compound 10 µM, first compound 0.1 µM): 94.1%
- viability, T/C (second compound 10 µM, first compound 0.316 µM): 93.2%
- viability, T/C (second compound 10 µM, first compound 1 µM): 82%
- viability, T/C (second compound 10 µM, first compound 3.16 µM): 69.7%
- viability, T/C (second compound 10 µM, first compound 10 µM): 38.6%
